Reference: US20260008862A1, “Bispecific Anti-BCMA x Anti-CD3 Antibodies and Uses Thereof” (Regeneron Pharmaceuticals, Inc., priority 2018, published 2026)

What was measured:
[1] = system: Jurkat/NFATLuc.3C7 cells + OPM-2 cells; assay: Jurkat/NFATLuc reporter bioassay with OPM-2 cells; format: cell-based; settings: highest RLU / lowest RLU
Protocol: (§1) Activity of the anti-BCMA×anti-CD3 bispecific antibodies were assessed in a Jurkat/NFATLuc reporter bioassay utilizing several cell lines with varying levels of BCMA surface expression. The Jurkat cells were engineered to express an NFAT-luciferase reporter (Jurkat/NFATLuc.3C7), and 50,000 Jurkat reporter cells were combined with 50,000 BCMA positive (Daudi, MM1-S, NCI-H929, OPM-2, RPMI-8226, MOLP-8, or Raji) or BCMA negative (HEK293) cells in Thermo Nunclon delta 96 well white microwell plates (Thermo Scientific, Cat #136102) in 50 ul of assay media (RPMI media with 10% FBS and 1% P/S/G). Three-fold serial dilutions of the BCMA×CD3 bispecific antibodies (mAb25441 D or mAb25442D), or a bivalent anti-BCMA antibody (mAb21581) were immediately added in 50 μL of assay buffer. The plates were gently agitated and incubated in a 37° C., 5% CO2 incubator for 4-6 hours. NFAT-Luciferase activity was determined using Promega One-Glo (Cat #E6130) and a Perkin Elmer Envision plate reader. RLU were plotted in GraphPad Prism using a four-parameter logistic equation over a 12-point response curve to calculate EC50 values. […] The signal to noise (S:N) is determined by taking the ratio of the highest RLU on the curve to the lowest.

[2] = target: T1, surface BCMA on MM cell lines (Homo sapiens, UniProt Q02223); assay: FACS surface BCMA after overnight incubation, MM cell lines overall; format: cell-based; settings: 66.7 or 667 nM
T1 construct: human cell lines which express endogenous BCMA (e.g., NCI-H929, MOLP-8 or OMP-2); endogenous in cells; host or cells: multiple myeloma cell lines H929, Molp8, U266, MM1.S
T1 sequence (Q02223 1-184): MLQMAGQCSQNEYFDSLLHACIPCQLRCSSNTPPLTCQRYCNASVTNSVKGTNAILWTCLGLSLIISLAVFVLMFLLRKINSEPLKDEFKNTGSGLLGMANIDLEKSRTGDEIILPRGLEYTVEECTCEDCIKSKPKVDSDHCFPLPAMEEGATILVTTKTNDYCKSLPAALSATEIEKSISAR
Protocol: Flow cytometric analysis was utilized to determine the impact of overnight incubation of multiple myeloma cell lines with anti-BCMA antibodies on the level of surface BCMA. […] After 18 hours, wells were washed with cold FACS wash (PBS+1% filtered FBS) and resuspended in 667 nM of the same anti-BCMA antibody in cold stain buffer (Miltenyi 130-091-221) for 30 minutes on ice. After incubation, the cells were washed twice with cold FACS wash (PBS+1% filtered FBS) and bound antibody was detected by incubating with the appropriate anti-human secondary antibody (anti-hIgG or anti-HIS) on ice for an additional 30-45 minutes. After incubation, cells were washed, re-suspended in 200 μL cold PBS containing 1% filtered FBS and analyzed by flow cytometry on a BD FACS Canto II. Fold increase in staining was calculated by dividing the MFI of stained cells previously incubated overnight in BCMA abs or DAPT by the MFI of stained cells that were incubated overnight in media only.

B16/BCMA tumors = assay: Syngenic B16/BCMA tumor model in CD3-humanized mice (Example 16); format: in vivo, mouse; settings: for Average Tumor Size (mm3) ± SEM on Day 5 / Average Tumor Size (mm3) ± SEM on Day 10 / Average Tumor Size (mm3) ± SEM on Day 14 / Average Tumor Size (mm3) ± SEM on Day 18: B16/BCMA Tumor
Protocol: To determine the in vivo efficacy of anti-BCMA×anti-CD3 bispecific antibodies (Abs), a syngenic tumor study was performed in mice expressing human CD3. C57BL/6 mice that express human CD3deg in place of murine CD3deg (CD3-humanized mice) were subcutaneously implanted with either 0.5×10^6 B16 melanoma cells that have been engineered to express full-length human BCMA (B16/BCMA cells) or 1×10^6 MC38 colon carcinoma cells that have been engineered to express full-length human BCMA (MC38/BCMA). […] The mice were administered these Abs twice more on days 4 and 7 for a total of three doses, and tumor growth was assessed throughout the experiment.
Implantation and measurement of syngenic tumors: C57BL/6 mice that express human CD3deg in place of murine CD3deg (CD3-humanized mice) were subcutaneously implanted with either 0.5×10^6 B16F10 melanoma cells that have been engineered to express full-length human BCMA (B16/BCMA cells) or 1×10^6 MC38 colon carcinoma cells that have been engineered to express full-length human BCMA (MC38/BCMA). […] The mice were administered these Abs twice more on days 4 and 7 for a total of three doses, and tumor growth was assessed throughout the experiment.
Calculation of syngenic tumor growth and inhibition: In order to determine tumor volume by external caliper, the greatest longitudinal diameter (length in mm) and the greatest transverse diameter (width in mm) were determined. Tumor volumes based on caliper measurements were calculated by the formula: Volume (mm^3)=(length×width^2)/2.

monkey BCMA-MFC = assay: SPR (Biacore 4000) binding kinetics to monkey BCMA-MFC; settings: 25° C.
Protocol: (§2) The CM5 Biacore sensor surface was derivatized by amine coupling with a monoclonal mouse anti-human Fc antibody (GE, #BR-11008-39) to capture purified anti-BCMA mAbs and anti-BCMA×anti-CD3 bispecific mAbs. All Biacore binding studies were performed in a buffer composed of 0.01 M HEPES pH 7.4, 0.15M NaCl, 3 mM EDTA, 0.05% v/v Surfactant P20 (HBS-ET running buffer). […] Antigen samples were then injected over the anti-BCMA and anti-BCMA×anti-CD3 bispecific mAbs captured surfaces at a flow rate of 30 μL/minute. Antibody-reagent association was monitored for 5 minutes while dissociation in HBS-ET running buffer was monitored for 10 minutes. All of the binding kinetics experiments were performed at 25° C. Kinetic association (ka) and dissociation (kd) rate constants were determined by fitting the real-time sensorgrams to a 1:1 binding model using Scrubber 2.0c curve fitting software. Binding dissociation equilibrium constants (KD) and dissociative half-lives (t½) were calculated from the kinetic rate constants as: […]

[3] = system: Jurkat/NFATLuc.3C7 cells + MOLP-8 cells; assay: Jurkat/NFATLuc reporter bioassay with MOLP-8 cells; format: cell-based; settings: highest RLU / lowest RLU
Protocol: as §1

monkey BCMA-MMH = assay: SPR (Biacore 4000) binding kinetics to monkey BCMA-MMH; settings: 25° C.
Protocol: as §2

human BCMA-MFC = target: T2, human BCMA-MFC (Homo sapiens, UniProt Q02223); assay: SPR (Biacore 4000) binding kinetics to human BCMA-MFC; settings: 25° C.
T2 construct: (human BCMA-MFC); made in house
Protocol: as §2

T2 sequence (Q02223 with tags, fused parts or gaps): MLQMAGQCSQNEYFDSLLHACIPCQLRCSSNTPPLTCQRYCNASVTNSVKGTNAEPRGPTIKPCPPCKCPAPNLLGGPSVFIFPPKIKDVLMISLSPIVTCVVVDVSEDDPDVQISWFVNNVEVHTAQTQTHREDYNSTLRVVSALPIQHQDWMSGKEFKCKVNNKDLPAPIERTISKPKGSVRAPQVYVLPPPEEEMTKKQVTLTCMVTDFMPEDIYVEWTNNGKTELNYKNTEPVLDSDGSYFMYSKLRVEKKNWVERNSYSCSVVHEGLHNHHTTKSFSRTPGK
Chain of monkey BCMA-MMH (as listed by the source): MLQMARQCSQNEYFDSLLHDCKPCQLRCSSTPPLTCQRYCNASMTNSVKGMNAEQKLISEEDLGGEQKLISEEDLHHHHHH
Chain of monkey BCMA-MFC (as listed by the source): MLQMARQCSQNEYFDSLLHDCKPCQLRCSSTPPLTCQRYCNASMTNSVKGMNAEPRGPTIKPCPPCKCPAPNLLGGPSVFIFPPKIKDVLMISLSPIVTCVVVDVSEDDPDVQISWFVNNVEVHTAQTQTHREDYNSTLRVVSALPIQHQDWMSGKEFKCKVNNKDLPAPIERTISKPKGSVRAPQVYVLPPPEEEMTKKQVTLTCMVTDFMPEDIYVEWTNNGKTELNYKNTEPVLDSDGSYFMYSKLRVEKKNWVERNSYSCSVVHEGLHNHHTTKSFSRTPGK

Substance | S:N [1] | surface BCMA after overnight incubation (in words) [2] | Average Tumor Size (mm3) ± SEM on Day 5 (B16/BCMA tumors; 0.04 mg/kg) [mm3] | Average Tumor Size (mm3) ± SEM on Day 10 (B16/BCMA tumors; 0.04 mg/kg) [mm3] | Average Tumor Size (mm3) ± SEM on Day 14 (B16/BCMA tumors; 0.04 mg/kg) [mm3] | Average Tumor Size (mm3) ± SEM on Day 18 (B16/BCMA tumors; 0.04 mg/kg) [mm3] | Average Tumor Size (mm3) ± SEM on Day 5 (B16/BCMA tumors; 0.4 mg/kg) [mm3] | Average Tumor Size (mm3) ± SEM on Day 10 (B16/BCMA tumors; 0.4 mg/kg) [mm3] | Average Tumor Size (mm3) ± SEM on Day 14 (B16/BCMA tumors; 0.4 mg/kg) [mm3] | Average Tumor Size (mm3) ± SEM on Day 18 (B16/BCMA tumors; 0.4 mg/kg) [mm3] | tumor growth (in words) (B16/BCMA tumors; B16/BCMA, 0.4 or 0.04 mg/kg, three doses) | ka (monkey BCMA-MFC) [M⁻¹ s⁻¹] | kd (monkey BCMA-MFC) [s⁻¹] | S:N [3] | ka (monkey BCMA-MMH) [M⁻¹ s⁻¹] | kd (monkey BCMA-MMH) [s⁻¹] | ka (human BCMA-MFC) [M⁻¹ s⁻¹] | kd (human BCMA-MFC) [s⁻¹]
REGN5458: anti-BCMA×anti-CD3 bispecific antibody: BCMA HCVR of mAb21581 (SEQ 66), CD3 HCVR of mAb7221G (SEQ 90), common LCVR SEQ 82 | 8 | increased levels of surface BCMA | 3.3 ± 2.2 | 15.4 ± 12.5 | 81.4 ± 49.2 | 127.2 ± 63.9 | 0.0 ± 0.0 | 0.0 ± 0.0 | 8.1 ± 4.4 | 47.1 ± 17.0 | suppress the growth of both tumor lines in a dose-dependent manner | – | – | – | – | – | – | –
REGN5459: anti-BCMA×anti-CD3 bispecific antibody: BCMA HCVR of mAb21581 (SEQ 66), CD3 HCVR of mAb7221G20 (SEQ 98), common LCVR SEQ 82 | – | – | – | – | – | – | – | – | – | – | – | 482000 | 7.15e-05 | 31 | 223000 | 0.00864 | 449000 | ≤1e-05
